ChEMBL document CHEMBL1159107, “Novel semisynthetic spin-labeled derivatives of podophyllotoxin with cytotoxic and antioxidative activity” (Bioorg Med Chem Lett, 2010)

Key:
A549 = assay: Cytotoxicity against human A549 cells after 48 hrs; assay type: functional, cell-based; details: A549, 48 h
HL-60 = assay: Cytotoxicity against human HL60 cells after 48 hrs; assay type: functional, cell-based; details: HL-60, 48 h
RPMI-8226 = assay: Cytotoxicity against human RPMI8226 cells after 48 hrs; assay type: functional, cell-based; details: RPMI-8226, 48 h
Liver = assay: Antioxidant activity in Sprague-Dawley rat liver assessed as inhibition of malonaldehyde; assay type: functional, tissue-based
Kidney = assay: Antioxidant activity in Sprague-Dawley rat kidney assessed as inhibition of malonaldehyde; assay type: functional, tissue-based
Heart = assay: Antioxidant activity in Sprague-Dawley rat heart assessed as inhibition of malonaldehyde; assay type: functional, tissue-based

For `COc1cc([C@@H]2c3cc4c(cc3[C@@H](NC(=O)CNC(=O)OC3CC(C)(C)N([O])C(C)(C)C3)[C@H]3COC(=O)[C@H]23)OCO4)cc(OC)c1O`, the IC50 (A549) was 210 nM, the IC50 (HL-60) was 320 nM and the IC50 (RPMI-8226) was 330 nM. It also gave an IC50 (Liver) of 7470 nM, an IC50 (Kidney) of 8900 nM and an IC50 (Heart) of 7190 nM.

In the case of `COc1cc([C@@H]2c3cc4c(cc3[C@@H](NC(=O)[C@H](Cc3ccccc3)NC(=O)OC3CC(C)(C)N([O])C(C)(C)C3)[C@H]3COC(=O)[C@H]23)OCO4)cc(OC)c1O`, the IC50 (A549) is reported as 210 nM, the IC50 (HL-60) is reported as 210 nM and the IC50 (RPMI-8226) is reported as 90 nM. It also gave an IC50 (Liver) of 6550 nM, an IC50 (Kidney) of 9630 nM and an IC50 (Heart) of 7390 nM.

`COc1cc([C@@H]2c3cc4c(cc3[C@@H](O[C@@H]3O[C@@H]5CO[C@@H](C)O[C@H]5[C@H](O)[C@H]3O)[C@H]3COC(=O)[C@H]23)OCO4)cc(OC)c1O` [ETOPOSIDE] showed an IC50 (A549) of 290 nM, an IC50 (HL-60) of 420 nM and an IC50 (RPMI-8226) of 140 nM. The IC50 (Liver) was 43900 nM, the IC50 (Kidney) was 23800 nM and the IC50 (Heart) was 40700 nM.

For `COc1cc([C@@H]2c3cc4c(cc3[C@@H](NC(=O)[C@H](C)NC(=O)OC3CC(C)(C)N([O])C(C)(C)C3)[C@H]3COC(=O)[C@H]23)OCO4)cc(OC)c1O`, the IC50 (A549) was 120 nM, the IC50 (HL-60) was 220 nM and the IC50 (RPMI-8226) was 260 nM. For the same molecule, the IC50 (Liver) was 7640 nM, the IC50 (Kidney) was 7680 nM and the IC50 (Heart) was 6390 nM.

Work on `COc1cc([C@@H]2c3cc4c(cc3[C@@H](NC(=O)[C@@H](NC(=O)OC3CC(C)(C)N([O])C(C)(C)C3)C(C)O)[C@H]3COC(=O)[C@H]23)OCO4)cc(OC)c1O` (some centres not stated) yielded an IC50 (A549) of 210 nM, an IC50 (HL-60) of 210 nM and an IC50 (RPMI-8226) of 78 nM. For the same molecule, the IC50 (Liver) was 7120 nM, the IC50 (Kidney) was 7450 nM and the IC50 (Heart) was 8790 nM.

`COc1cc([C@@H]2c3cc4c(cc3[C@@H](NC(=O)[C@H](CC(C)C)NC(=O)OC3CC(C)(C)N([O])C(C)(C)C3)[C@H]3COC(=O)[C@H]23)OCO4)cc(OC)c1O` gave an IC50 (A549) of 190 nM, an IC50 (HL-60) of 160 nM and an IC50 (RPMI-8226) of 89 nM. For the same molecule, the IC50 (Liver) was 8850 nM and the IC50 (Kidney) was 8470 nM.

Work on `COc1cc([C@@H]2c3cc4c(cc3[C@@H](NC(=O)[C@H](CCSC)NC(=O)OC3CC(C)(C)N([O])C(C)(C)C3)[C@H]3COC(=O)[C@H]23)OCO4)cc(OC)c1O` yielded an IC50 (A549) of 420 nM, an IC50 (HL-60) of 670 nM and an IC50 (RPMI-8226) of 480 nM. It also gave an IC50 (Liver) of 6850 nM, an IC50 (Kidney) of 7550 nM and an IC50 (Heart) of 5890 nM.

Work on `COc1cc([C@@H]2c3cc4c(cc3[C@@H](NC(=O)[C@@H](NC(=O)OC3CC(C)(C)N([O])C(C)(C)C3)C(C)C)[C@H]3COC(=O)[C@H]23)OCO4)cc(OC)c1O` yielded an IC50 (A549) of 150 nM, an IC50 (HL-60) of 240 nM and an IC50 (RPMI-8226) of 61 nM. For the same molecule, the IC50 (Liver) was 8690 nM, the IC50 (Kidney) was 8880 nM and the IC50 (Heart) was 8040 nM.
